Data as given in PubChem BioAssay (NCI).
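Method: 48-hour compound exposure of cells in 96-well plates, five concentrations, linear interpolation of endpoints. At the TGI there is no net growth.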

What was measured:
Assay in all cases: NCI anticancer screen, dose series, 48 h
786-0 renal = system: 786-0 renal
A498 renal = system: A498 renal
COLO 205 colon = system: COLO 205 colon
DLD-1 colon = system: DLD-1 colon
DMS 114 small cell lung = system: DMS 114 small cell lung
HOP-92 NSCLC = system: HOP-92 NSCLC
LOX IMVI melanoma = system: LOX IMVI melanoma
M14 melanoma = system: M14 melanoma
M19-MEL melanoma = system: M19-MEL melanoma
NCI-H522 lung = system: NCI-H522 lung
OVCAR-3 ovarian = system: OVCAR-3 ovarian
SK-MEL-2 melanoma = system: SK-MEL-2 melanoma
TK-10 renal = system: TK-10 renal
UACC-257 melanoma = system: UACC-257 melanoma
CAKI-1 renal = system: CAKI-1 renal
HCT-15 colon = system: HCT-15 colon
NCI-H226 lung = system: NCI-H226 lung
DU-145 prostate = system: DU-145 prostate
MCF7 breast = system: MCF7 breast

SMILES | TGI (786-0 renal) [µM] | TGI (A498 renal) [µM] | TGI (COLO 205 colon) [µM] | TGI (DLD-1 colon) [µM] | TGI (DMS 114 small cell lung) [µM] | TGI (HOP-92 NSCLC) [µM] | TGI (LOX IMVI melanoma) [µM] | TGI (M14 melanoma) [µM] | TGI (M19-MEL melanoma) [µM] | TGI (NCI-H522 lung) [µM] | TGI (OVCAR-3 ovarian) [µM] | TGI (SK-MEL-2 melanoma) [µM] | TGI (TK-10 renal) [µM] | TGI (UACC-257 melanoma) [µM] | TGI (CAKI-1 renal) [µM] | TGI (HCT-15 colon) [µM] | TGI (NCI-H226 lung) [µM] | TGI (DU-145 prostate) [µM] | TGI (MCF7 breast) [µM]
CSCCC(C(=O)O)N(CC1(O)OCC(O)C(O)C1O)N=O (centres undefined) | > 100 | > 100 | > 100 | > 100 | > 100 | > 100 | > 100 | > 100 | > 100 | > 100 | > 100 | > 100 | > 100 | > 100 | – | – | – | – | –
CCOC(=O)CNc1nnnn1C1OC(CO)C(O)C1O (centres undefined) | > 100 | > 100 | > 100 | > 100 | > 100 | – | > 100 | > 100 | > 100 | > 100 | > 100 | > 100 | > 100 | > 100 | > 100 | > 100 | > 100 | – | –
O=C1C=CC2(C=C1)C[C@H](NC(=O)OCc1ccccc1)C(=O)O2 | 27.6 | > 100 | 18.3 | 14.1 | 47.2 | 29.9 | 31.8 | 32.6 | 33.7 | 8.53 | 30.4 | 40 | 32.4 | 33.2 | 34.8 | 27 | > 86.7 | 85.3 | 25.1
CCCN(CCC)C1=Nc2ccccc2-n2cnnc2C1 | > 100 | – | > 100 | – | > 100 | – | > 100 | > 100 | > 100 | > 100 | > 100 | > 100 | > 100 | – | – | > 100 | > 100 | – | –
CCOC(=O)C1(Br)S(=O)(=O)OCCOS1(=O)=O | > 100 | > 100 | > 100 | > 100 | > 100 | > 100 | > 100 | > 100 | > 100 | > 100 | > 100 | > 100 | > 100 | > 100 | – | > 100 | > 100 | – | –
COc1ccc(-c2cc(=O)c3c(O)cc(O)cc3o2)c(OC)c1OC | > 100 | – | > 100 | > 100 | > 100 | > 100 | > 100 | > 100 | > 100 | > 100 | > 100 | > 100 | > 100 | > 100 | > 100 | – | > 100 | – | –
CC[C@@]1(CCC(=O)NCCc2c[nH]c3ccccc23)CCC(=O)N2CCc3c([nH]c4ccccc34)[C@H]21 | > 100 | > 100 | > 100 | – | – | > 100 | 96.2 | > 100 | – | 18.8 | > 100 | 86.4 | > 100 | > 100 | > 100 | > 100 | 77.8 | > 100 | > 100
COc1cccc(NC(=O)C(=O)C2C=CCS2(=O)=O)c1 (centres undefined) | > 100 | > 100 | > 100 | > 100 | > 100 | – | > 100 | > 100 | > 100 | > 100 | > 100 | > 100 | > 100 | > 100 | > 100 | > 100 | > 100 | – | –
O=C1O/C(=C\c2ccc(O)cc2)C(c2ccc(O)c(Cl)c2)=C1Cl | > 100 | > 100 | > 100 | – | – | 60.6 | > 100 | > 100 | – | 53.3 | > 100 | 77.4 | > 100 | > 100 | > 100 | > 100 | > 100 | > 100 | 47.4
O=c1ccnc2ccc3n[nH][nH]c3c12 | > 100 | > 100 | > 100 | > 100 | > 100 | > 100 | – | > 100 | > 100 | – | > 100 | > 100 | > 100 | > 100 | > 100 | > 100 | – | – | –
CN(C(=O)c1ccco1)C(=S)N1CCN(c2ccccn2)CC1 | > 100 | – | > 100 | > 100 | – | > 100 | > 100 | > 100 | > 100 | > 100 | > 100 | > 100 | > 100 | > 100 | > 100 | > 100 | > 100 | – | –
CC1C(c2ccccc2O)c2cc3c(cc2OC1N1CCOCC1)OCO3 (centres undefined) | > 100 | 52.1 | 46.6 | – | – | 71.1 | 41.3 | > 100 | – | 37.8 | 60.6 | 72.5 | 97.6 | 47 | 77.5 | > 100 | 77.4 | > 100 | > 100
Nc1ccc(Sc2c3ccccc3nc3ccccc23)cc1 | 14.7 | > 100 | 37.6 | 19.7 | 38 | > 38 | 13.9 | 30.1 | 47.9 | 16 | 29.2 | 34.1 | 34.2 | 33.1 | 39 | 36.7 | 58.4 | 28.7 | 28.8
COC(=O)C1C=CCON2CCc3c(n(S(=O)(=O)c4ccccc4)c4ccccc34)C12 (centres undefined) | > 100 | > 100 | > 68.9 | > 22.8 | > 87.7 | > 100 | > 60.9 | > 100 | > 70.5 | > 62.5 | > 100 | > 100 | > 100 | > 90.3 | 98.7 | > 72.9 | > 91.1 | – | –
COc1c2c(cc3c1C(=O)Cc1ccc4c(c1CN(C)CC3)OCO4)OCO2 | > 100 | – | > 100 | > 100 | > 100 | > 100 | > 100 | > 100 | > 100 | > 100 | > 100 | > 100 | > 100 | > 100 | > 100 | > 100 | > 100 | – | –
COC1CC(O[C@H]2CC[C@@]3(C)[C@@H](CC[C@]4(O)[C@@H]3CC[C@]3(C)[C@@H](C(C)=O)[C@H](OC(=O)CC(C)C)[C@@H](OC(=O)c5ccccc5)[C@@]34O)C2)OC(C)C1OC1CC(OC)C(OC2OC(C)C(O)C(OC)C2O)C(C)O1 (some centres undefined) | > 25 | > 25 | 12.4 | – | – | 24.8 | > 25 | > 25 | – | > 25 | > 25 | > 25 | > 25 | > 25 | > 25 | > 25 | > 25 | > 25 | > 25
CCOC(=O)C(CCc1ncnc2c1ncn2Cc1ccccc1)(CCc1ncnc2c1ncn2Cc1ccccc1)C(=O)OCC | > 100 | > 100 | > 100 | – | – | > 100 | > 100 | > 100 | – | > 100 | > 100 | > 100 | > 100 | > 100 | > 100 | > 100 | > 100 | > 100 | > 100
Cc1cccc2c1c(=O)c1c(O)cc(O)cc1n2C | > 100 | > 100 | > 100 | – | – | > 100 | > 100 | > 100 | – | > 100 | > 100 | > 100 | > 100 | > 100 | > 100 | > 100 | > 100 | > 100 | > 100
CCCCCCCCOC(=O)c1cc([N+](=O)[O-])c(Sc2ncnc3nc[nH]c23)c([N+](=O)[O-])c1 | > 37.2 | 44.9 | 3.68 | 2.94 | 1.81 | 6.32 | 1.24 | 26.9 | 12.9 | 2.41 | 4.01 | 17.7 | 8.58 | 28 | 17.7 | 20.6 | 13.5 | 18.6 | 12.1
